Read-outs that look alike come from different tables or passages of the source.
Key:
PBP2a [1] = details: cited from earlier work; for Kd: read-out: ks
MRSA USA300 [2] = assay: TEM analysis of cell morphology / division defects; format: cell-based, Staphylococcus aureus; details: 4 μg/mL (1/2× MIC), 3 h
Experimental: MRSA USA300 was cultured overnight, diluted (1:100) into 20 mL of Trypticase soy broth (TSB) medium, and incubated at 30°C with shaking until the optical density at 600 nm (OD600) reached 0.3. […] Bacterial cells treated with 4 μg/mL ceftaroline fosamil (1/2 of their respective MIC) served as a control group. Untreated S. aureus served as a negative control. Bacteria were collected and washed in PBS and resuspended in 4% (vol/vol) glutaraldehyde fixation overnight. The fixed samples were further processed, and morphological changes in S. aureus were observed by TEM (JSM-7900F; JEOL, Japan).

PBP2a [3] = target: PBP2a (Staphylococcus aureus, UniProt P07944); assay: PBP2a acylation kinetics, nitrocefin competition assay; format: biochemical, MRSA
Experimental: Please refer to the supplemental material for the kinetic parameters of the interaction between WYBQ-4 and PBP2a and the determination of the rate of diacylation.
Supplementary Method. 1 Determination of the Kinetic Parameters for Interactions of […]
Determination of the kinetic parameters for interactions of WYBQ-4 with PBP2a The kinetic parameters of the interaction of WYBQ-4 with PBP2a were determined as previously described (1). The kinetics of the reaction between PBP2a of MRSA with WYBQ-4 was studied in homogeneous aqueous solution at 37℃ in 25 mM Hepes buffer, pH 7.0, containing 1 M NaCl and the inhibition of PBPs by β-lactams follows this kinetic scheme. […]
In this minimal scheme, E represents PBP2a, EI is the noncovalent preacylation complex, E-I is the covalent acyl-enzyme species, and P denotes the product of E-I hydrolysis and restoration of […]
The typical reactions of β-lactam could be monitored through competition with a chromophoric β-lactam, nitrocefin, or directly in certain cases by fluorescence intensity of protein. In this study, it is proposed to determine the secondary rate constants (k2/Ks) of WYBQ-4 by nitrocefin competition assay. The reaction was conducted in the above buffer, and the reaction system contained PBP2a (2.5 μM) and different concentrations of nitrocefin (20-120 μM). The reaction was carried out in a UV spectrophotometer (PERSEE T600, China) and the change in absorbance at 500 nm was […]
Apparent first-order rate constants for acylation by nitrocefin were determined by fitting the change in absorbance with time to eqn. (1):
A = A0 + ∆εn E0[(1 − exp (−kn∗ t)] + k0N0∆εn Ε0t (1) where A0 is the initial absorbance at 500 nm, ∆εn the change in molar absorption coefficient on nitrocefin hydrolysis (15900 M-1cm-1), E0 the initial enzyme concentration, N0 the initial nitrocefin concentration, kn* the (burst) pseudo-first-order rate constant for acylation of PBP2a by nitrocefin, and k0 the (line) second-order rate constant of a non-specific hydrolysis of nitrocefin in the presence of PBP2a. The second-order rate constants (kn) for acylation were calculated by fitting a plot of the apparent first-order rate constants (kn*) against the concentration of nitrocefin using a linear least-squares method.
Subsequently, nitrocefin (100 μM) was used as a reporter molecule to determine the apparent first-order rate constants for acylation of WYBQ-4 at different concentrations (0-500 μM) in competition assays. In this case, the change in absorbance at 500 nm with time was fitted to eqn.
Α = A + ∆ε E (k∗ ∕ (k∗ + k∗)(1 − exp (−(k∗ + k∗)t)) + k N ∆ε Ε t (2) […]

MRSA USA300 [4] = assay: Mouse systemic infection model; format: in vivo, mice; details: USA300 5 × 10^7 CFU, 150 mg/kg, tail intravenous injection at 0 and 3 h, 7-day
Experimental: The S. aureus-induced systemic infection model of mice (6-week-old female C57BL/6J mice) was established as previously described ([46]). […] The mice infected in the same way were treated with physiological saline as an infection control group. The mock group was not infected with S. aureus, and the 7-day mortality of the mice in each group was calculated.

MRSA USA300 [5] = assay: Mouse lung infection model, bacterial load and histopathology; format: in vivo, mice; details: mouse pneumonia, USA300; after treatment
Experimental: The mice were challenged with 1 × 10^8 CFU of MRSA USA300 to assess bacterial load and pathological changes. The dose and manner of administration in mice were consistent with the survival experiments. In addition, the mice treated with ceftaroline fosamil at 75 and 37.5 mg/kg were used as control groups. At 48 h postinfection, mice were euthanized, and the left lungs were aseptically removed, weighed, and homogenized. Then, the lung tissues were homogenized and serially diluted for CFU counts. The right lungs were fixed with 10% formalin, embedded in paraffin, thin-sectioned, subjected to conventional hematoxylin and eosin (H&E) staining, and then observed using an optical microscope.

MRSA USA300 [6] = assay: Mouse lung infection model, survival; format: in vivo, mice; details: mouse pneumonia, USA300 2 × 10^8 CFU, 12-h intervals, within 72 h
Experimental: The animal experiments were performed using 6-week-old male C57BL/6J mice, and the mouse model of lung infection caused by MRSA USA300 was established as previously described ([43], [44]). For the survival rate, mice (10 per group) were infected with MRSA USA300 (2 × 10^8 CFU per mouse). After 2 h of infection, mice were given WYBQ-4 via subcutaneous injection and reinjected at 12-h intervals, whereas mice were treated with ceftaroline fosamil at the same doses and served as positive controls. Mice injected with only MRSA USA300 were used as a negative control. Survival of mice was recorded within 72 h, and survival rates were calculated.

MSSA ATCC 29213 = assay: Postantibiotic effect (viable plate count); format: cell-based, Staphylococcus aureus; details: 1 h exposure
Experimental: The postantibiotic effect (PAE) of WYBQ-4 against MSSA 29213 was determined in MHB agar using the viable plate count method ([39]). […] After incubation at 37°C for 1 h, WYBQ-4 was removed by centrifugation and washing with phosphate-buffered saline (PBS). Subsequently, fresh MHB medium was added to resuspend the bacteria, and the mixture was incubated at 37°C with shaking. The number of colonies was counted by taking 10 μL of bacteria at 1-h intervals and applying them to BHI agar plates after appropriate dilution. PAE duration was calculated as follows: time (h) for bacteria to return to log-phase growth after drug treatment – time (h) for the control group to return to log-phase growth ([40]).

PBP2a [7] = details: as reported; cited from earlier work

Sequence of PBP2a (Staphylococcus aureus, UniProt P07944) (P07944 whole entry): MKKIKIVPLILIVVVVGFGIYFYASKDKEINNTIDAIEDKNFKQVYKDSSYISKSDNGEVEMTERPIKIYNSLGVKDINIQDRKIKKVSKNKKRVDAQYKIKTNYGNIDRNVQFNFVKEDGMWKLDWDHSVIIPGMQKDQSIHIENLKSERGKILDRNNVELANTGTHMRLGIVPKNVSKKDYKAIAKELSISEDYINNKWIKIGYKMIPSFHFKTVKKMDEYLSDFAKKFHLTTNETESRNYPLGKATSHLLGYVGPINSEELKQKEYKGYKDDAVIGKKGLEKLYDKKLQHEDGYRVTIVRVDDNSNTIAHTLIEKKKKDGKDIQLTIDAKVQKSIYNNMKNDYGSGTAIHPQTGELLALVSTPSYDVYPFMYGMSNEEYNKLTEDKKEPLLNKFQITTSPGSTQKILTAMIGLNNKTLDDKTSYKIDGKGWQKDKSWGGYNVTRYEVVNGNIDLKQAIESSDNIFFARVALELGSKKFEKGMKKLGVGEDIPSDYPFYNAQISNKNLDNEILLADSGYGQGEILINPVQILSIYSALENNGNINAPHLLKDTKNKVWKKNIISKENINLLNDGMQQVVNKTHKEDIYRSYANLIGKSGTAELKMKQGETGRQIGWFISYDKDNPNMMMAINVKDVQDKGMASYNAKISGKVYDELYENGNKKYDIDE

Question: For `CC1(C)S[C@@H]2[C@H](NC(=O)[C@H](N)c3ccccc3)C(=O)N2[C@H]1C(=O)O` [Ampicillin], which k2 (PBP2a [1]; PBP2a) is on record?
Answer: 3.4 ± 0.1 s^–1 × 10^3

Question: What about the k2/ks (PBP2a [1]; PBP2a) of the same compound?
Answer: 5.0 ± 1.0 M^–1s^–1

Question: What about the k3 (PBP2a [1]; PBP2a) of the same compound?
Answer: 3.2 ± 0.1 s^–1 × 10^6

Question: And the Kd (PBP2a [1]; PBP2a)?
Answer: 668 ± 124 µM

Question: Which “Percentage of defective cells (thin cell walls)” value (MRSA USA300 [2]) does the source give for `CCO/N=C(\C(=O)N[C@@H]1C(=O)N2C(C(=O)[O-])=C(Sc3nc(-c4cc[n+](C)cc4)cs3)CS[C@H]12)c1nsc(N)n1` [Ceftaroline] here?
Answer: 71.9%

Question: What about the k2/ks (PBP2a [1]; PBP2a acylation) of the same compound?
Answer: 4,500 ± 640 M^–1s^–1

Question: What about the k2/ks (PBP2a [1]; PBP2a acylation, listed as ceftaroline) of the same compound?
Answer: 4,500 M^–1s^–1

Question: And the Kd (PBP2a [1]; PBP2a)?
Answer: 20 ± 4 µM

Question: Which k2 (PBP2a [1]; PBP2a) does the source give for `CC(C)(O/N=C(\C(=O)N[C@@H]1C(=O)N2C(C(=O)[O-])=C(C[n+]3ccccc3)CS[C@H]12)c1csc(N)n1)C(=O)O` [Ceftazidime] here?
Answer: 1.0 ± 0.1 s^–1 × 10^3

Question: And the k2/ks (PBP2a [1]; PBP2a)?
Answer: 1.5 ± 0.3 M^–1s^–1

Question: And the k3 (PBP2a [1]; PBP2a)?
Answer: 3.2 ± 0.2 s^–1 × 10^6

Question: What about the Kd (PBP2a [1]; PBP2a) of the same compound?
Answer: 671 ± 116 µM

Question: With `O=C(Cc1cccs1)N[C@@H]1C(=O)N2C(C(=O)O)=C(/C=C/c3ccc([N+](=O)[O-])cc3[N+](=O)[O-])CS[C@H]12` [Nitrocefin] as the compound, how does the “primary reaction rate constant, kn*” value (PBP2a [3]; 100 μM nitrocefin, acylation of PBP2a) read?
Answer: approximately 0.05 s^−1

Question: What about the “secondary rate constant, k0, for the nonspecific hydrolysis of nitrocefin” value (PBP2a [3]; in the presence of PBP2a) of the same compound?
Answer: 2.3 ± 0.14 M⁻¹ s⁻¹

Question: And the k2 (PBP2a [1]; PBP2a)?
Answer: 3.7 ± 0.3 s^–1 × 10^3

Question: What about the k2/ks (PBP2a [1]; PBP2a) of the same compound?
Answer: 19.0 ± 3.0 M^–1s^–1

Question: What about the k3 (PBP2a [1]; PBP2a) of the same compound?
Answer: 7.2 ± 0.1 s^–1 × 10^6

Question: And the Kd (PBP2a [1]; PBP2a)?
Answer: 192 ± 24 µM

Question: For `CO/N=C(\C(=O)N[C@@H]1C(=O)N2C(C(=O)[O-])=C(C[N+]3(C)CCCC3)CS[C@H]12)c1csc(N)n1` [cefepime], which survival rate (MRSA USA300 [4]) is on record?
Answer: 40%

Question: And the k2 (PBP2a [1]; PBP2a)?
Answer: 1.5 ± 0.1 s^–1 × 10^3

Question: And the k2/ks (PBP2a [1]; PBP2a)?
Answer: 0.9 ± 0.1 M^–1s^–1

Question: And the k3 (PBP2a [1]; PBP2a)?
Answer: 5.9 ± 0.5 s^–1 × 10^6

Question: With `CCO/N=C(\C(=O)N[C@@H]1C(=O)N2C(C(=O)[O-])=C(Sc3nc(-c4cc[n+](C)cc4)cs3)CS[C@H]12)c1nsc(NP(=O)(O)O)n1` [ceftaroline fosamil, reference compound] as the compound, how does the “Asymmetry of bacterial division (number of cells)” value (MRSA USA300 [2]) read?
Answer: 41

Question: What about the “Distortion of septa (number of cells)” value (MRSA USA300 [2]) of the same compound?
Answer: 31

Question: What about the “Percentage of defective cells (asymmetry of bacterial division)” value (MRSA USA300 [2]) of the same compound?
Answer: 46.1 C %

Question: What about the “Percentage of defective cells (distortion of septa)” value (MRSA USA300 [2]) of the same compound?
Answer: 34.8 B %

Question: And the “Percentage of defective cells (thin cell walls)” value (MRSA USA300 [2])?
Answer: 71.9 C %

Question: And the “Thin cell walls (number of cells)” value (MRSA USA300 [2])?
Answer: 64

Question: And the “inflammatory signs of lung tissue (H&E histopathology)” value (MRSA USA300 [5])?
Answer: significantly reduced

Question: What about the survival rate (MRSA USA300 [6]; 37.5 mg/kg subcutaneous) of the same compound?
Answer: 26.67%

Question: And the survival rate (MRSA USA300 [6]; 75 mg/kg subcutaneous)?
Answer: 76.67%

Question: With `CO[C@@]1(NC(=O)C(C(=O)O)c2ccc(O)cc2)C(=O)N2C(C(=O)O)=C(CSc3nnnn3C)CO[C@@H]21` (some centres unmarked) [moxalactam, reference compound] as the compound, how does the survival rate (MRSA USA300 [4]) read?
Answer: 50%

Question: What about the PAE (MSSA ATCC 29213; 2× MIC) of the same compound?
Answer: 1 h

Question: And the PAE (MSSA ATCC 29213; 8× MIC)?
Answer: 2.5 h

Question: For `Cc1onc(-c2ccccc2)c1C(=O)N[C@@H]1C(=O)N2[C@@H]1SC(C)(C)[C@@H]2C(=O)O` [oxacillin], which “IC50 for PBP2a” value (PBP2a [7]) is on record?
Answer: 408 ± 6 µg/mL

From article PMC9603521, “WYBQ-4: a New Bactericidal Agent against Methicillin-Resistant Staphylococcus aureus” (Microbiology Spectrum, 2022)
